The values below come from patent US20260224524A1, “A PHARMACEUTICAL COMPOSITION TARGETING MUTANT P53 AND HER2” (DR DOZO LABORATORIES, priority 2023, published 2026).

In the assay the test system is Human Lung Cancer Cell Line A-549. Briefly: Growth inhibition (% control growth, LC50, TGI, GI50) A-549. Type of assay: cell-based. As to conditions: Homo sapiens, A549, read-out: LC50, A-549; Molar drug concentrations calculated from graph. How it is done:
The therapeutic effect of SA1 (peak 5) and SA2 (peak 4) is evaluated against human lung cancer cell line A-549 by calculating the percentage growth inhibition, drug concentration of test compound needed to inhibit cell growth by 50% (GI50) values.
The therapeutic effect of SACC is evaluated against human lung cancer cell line A-549 by calculating the percentage growth inhibition, drug concentration of test compound needed to inhibit cell growth by 50% (GI50) values.

In the case of `COc1cccc2c1C(=O)c1c(O)c3c(c(O)c1C2=O)C[C@@](O)(C(=O)CO)C[C@@H]3O[C@H]1C[C@H](N)[C@H](O)[C@H](C)O1` [ADR, Adriamycin], the LC50 was 143 µM.
